Like-named read-outs stand apart in the source and are kept apart here.

The assay has as its target T1, BRAF V600E (Homo sapiens, UniProt P15056+Q96SW2, V600E).
T1 construct: knock-in of the HiBiT tag to the endogenous BRAF V600E locus; host or cells: A375.10 (A375 clonal line, CRISPR HiBiT knock-in at the endogenous BRAF V600E locus)
Nature of the assay: BRAF V600E HiBiT Degradation Assay. It counts as cell-based. The following applies: for DC50: A375.10 cells, BRAF V600E, 2 hours; for Emax: read-out: HiBiT-Degradation A375.10 BRAF 2 hours Emax, A375.10 cells, BRAF V600E, 2 hours, residual protein remaining. The procedure, abridged: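 Endogenous HiBiT knock-in on BRAF V600E in A375 cells (clone A375.10); 11-point half-log series, top 10 μM, 2, 6 or 24 h at 37° C. Lytic HiBiT luminescence, background-subtracted, normalized to DMSO; 4-parameter fit gives DC50, Emax (residual protein) and IP (inflection point).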
For orientation: HiBiT is a short tag that completes a luciferase, so light tracks the accessible tagged protein.

[1] abbreviates: read-out: HiBiT-Degradation A375.10 BRAF 2 hours DC50.
Setting [2] is: read-out: HiBiT-Degradation A375.10 BRAF 2 hours IP, inflection point.

T1 sequence (P15056 whole entry V600E): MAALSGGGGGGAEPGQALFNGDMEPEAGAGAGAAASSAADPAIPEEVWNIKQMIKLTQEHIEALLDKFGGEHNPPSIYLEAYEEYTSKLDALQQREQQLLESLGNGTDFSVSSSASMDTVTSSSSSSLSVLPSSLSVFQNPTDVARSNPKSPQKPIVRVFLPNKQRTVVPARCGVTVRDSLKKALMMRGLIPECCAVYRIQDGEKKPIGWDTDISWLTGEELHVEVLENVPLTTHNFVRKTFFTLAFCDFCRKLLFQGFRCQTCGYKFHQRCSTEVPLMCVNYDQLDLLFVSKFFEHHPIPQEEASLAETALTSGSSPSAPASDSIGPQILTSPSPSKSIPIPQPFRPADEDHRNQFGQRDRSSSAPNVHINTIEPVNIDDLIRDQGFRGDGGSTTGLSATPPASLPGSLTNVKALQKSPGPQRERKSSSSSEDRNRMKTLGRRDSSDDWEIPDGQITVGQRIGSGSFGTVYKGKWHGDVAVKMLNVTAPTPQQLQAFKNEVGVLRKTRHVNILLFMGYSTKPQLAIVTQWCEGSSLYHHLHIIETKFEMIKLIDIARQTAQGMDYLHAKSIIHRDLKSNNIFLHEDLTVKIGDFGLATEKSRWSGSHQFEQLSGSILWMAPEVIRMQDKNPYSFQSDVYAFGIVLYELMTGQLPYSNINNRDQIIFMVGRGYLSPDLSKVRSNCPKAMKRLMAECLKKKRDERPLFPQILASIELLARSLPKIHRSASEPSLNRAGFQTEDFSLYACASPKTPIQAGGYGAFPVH
T1 sequence (Q96SW2 whole entry): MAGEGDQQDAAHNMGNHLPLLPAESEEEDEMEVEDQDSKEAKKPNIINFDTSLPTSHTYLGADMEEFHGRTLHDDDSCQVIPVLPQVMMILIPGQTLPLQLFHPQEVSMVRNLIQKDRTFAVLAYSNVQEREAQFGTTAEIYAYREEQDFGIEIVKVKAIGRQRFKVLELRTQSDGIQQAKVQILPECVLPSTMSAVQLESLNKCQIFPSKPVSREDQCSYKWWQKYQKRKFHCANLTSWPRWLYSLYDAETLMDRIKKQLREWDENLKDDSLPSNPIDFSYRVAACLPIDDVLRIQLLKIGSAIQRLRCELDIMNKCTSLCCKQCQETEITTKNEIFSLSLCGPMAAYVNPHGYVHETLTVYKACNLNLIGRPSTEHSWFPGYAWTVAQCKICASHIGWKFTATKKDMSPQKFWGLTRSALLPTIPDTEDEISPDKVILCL
T1 sequence (Q16531 whole entry partner): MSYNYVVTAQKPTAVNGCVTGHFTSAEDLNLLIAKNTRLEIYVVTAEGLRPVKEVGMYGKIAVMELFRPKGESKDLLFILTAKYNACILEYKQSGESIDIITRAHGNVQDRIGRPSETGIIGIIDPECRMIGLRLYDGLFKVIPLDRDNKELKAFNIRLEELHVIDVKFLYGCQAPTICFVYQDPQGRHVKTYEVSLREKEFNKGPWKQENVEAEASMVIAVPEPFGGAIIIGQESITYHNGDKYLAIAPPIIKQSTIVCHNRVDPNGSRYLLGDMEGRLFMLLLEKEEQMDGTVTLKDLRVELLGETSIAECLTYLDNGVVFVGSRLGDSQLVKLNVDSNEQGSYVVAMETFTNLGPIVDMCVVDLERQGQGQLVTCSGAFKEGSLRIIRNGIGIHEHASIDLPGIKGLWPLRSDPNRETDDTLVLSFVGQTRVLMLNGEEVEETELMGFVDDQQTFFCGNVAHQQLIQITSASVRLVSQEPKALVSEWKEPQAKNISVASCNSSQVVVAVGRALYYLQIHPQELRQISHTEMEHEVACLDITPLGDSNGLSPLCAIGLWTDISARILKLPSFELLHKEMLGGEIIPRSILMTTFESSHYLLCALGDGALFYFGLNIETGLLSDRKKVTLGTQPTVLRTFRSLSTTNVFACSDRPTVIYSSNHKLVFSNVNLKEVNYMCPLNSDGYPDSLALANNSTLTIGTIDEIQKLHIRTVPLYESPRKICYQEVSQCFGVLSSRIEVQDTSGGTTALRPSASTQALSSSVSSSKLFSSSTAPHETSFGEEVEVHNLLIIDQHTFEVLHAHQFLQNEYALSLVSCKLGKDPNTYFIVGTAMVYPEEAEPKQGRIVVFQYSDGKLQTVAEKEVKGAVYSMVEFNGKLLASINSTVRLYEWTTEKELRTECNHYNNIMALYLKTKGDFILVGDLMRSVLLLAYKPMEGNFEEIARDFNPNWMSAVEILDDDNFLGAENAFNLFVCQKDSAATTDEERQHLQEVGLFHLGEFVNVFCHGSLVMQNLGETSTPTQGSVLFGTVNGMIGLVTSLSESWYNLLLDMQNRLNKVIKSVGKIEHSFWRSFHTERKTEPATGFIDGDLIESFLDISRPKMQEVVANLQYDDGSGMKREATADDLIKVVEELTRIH

What is called Emax is the size of the effect at its maximum, as opposed to the concentration needed. Regarding `CO[C@@H]1CCN(S(=O)(=O)Nc2ccc(F)c(Oc3ccc4ncn(C5CC6(CCN(C7CC8(C7)CN(c7cc9c(cc7F)c(N7CCC(=O)NC7=O)nn9C)C8)CC6)C5)c(=O)c4c3)c2C#N)C1` (stereo partly drawn) [Compound 269, (3R)-N-[2-cyano-3-[3-[7-[2-[3-(2,4-dioxohexahydropyrimidin-1-yl)-5-fluoro-1-methyl-indazol-6-yl]-2-azaspiro[3.3]heptan-6-yl]-7-azaspiro[3.5]nonan-2-yl]-4-oxo-quinazolin-6-yl]oxy-4-fluoro-phenyl]-3-methoxy-pyrrolidine-1-sulfonamide], the Emax was less than 50%. Moreover, under setting [1], the DC50 is less than 1000 nM. Further, the DC50 under setting [2] was less than 1000 nM.
As for `COC1CN(S(=O)(=O)Nc2ccc(F)c(Oc3ccc4ncn(C5CC6(CCN(C7CC8(C7)CN(c7cc9c(cc7F)c(N7CCC(=O)NC7=O)nn9C)C8)CC6)C5)c(=O)c4c3)c2C#N)C1` (stereo not drawn) [Compound 280, N-[2-cyano-3-[3-[7-[2-[3-(2,4-dioxohexahydropyrimidin-1-yl)-5-fluoro-1-methyl-indazol-6-yl]-2-azaspiro[3.3]heptan-6-yl]-7-azaspiro[3.5]nonan-2-yl]-4-oxo-quinazolin-6-yl]oxy-4-fluoro-phenyl]-3-methoxy-azetidine-1-sulfonamide], the Emax was less than 50%. Further, under setting [1], the DC50 is less than 1000 nM. In addition, the DC50 under setting [2] is less than 1000 nM.

These data come from patent US20260297060A1, “COMPOUNDS FOR THE DEGRADATION OF MUTANT BRAF” (C4 THERAPEUTICS, INC., priority 2023, published 2026).
